In article PMC7481290, “Halogenation as a tool to tune antimicrobial activity of peptoids” (Scientific Reports, 2020):
In brackets after ≈: the same amount, converted by molar mass. Non-standard residues stand in square brackets, D forms with d. Residues, ends and D or L forms follow the SMILES beside them. N(4-Br-benzyl)Gly = O=C(O)CNCc1ccc(Br)cc1; Nspe = C[C@H](NCC(=O)O)c1ccccc1; Nphe = O=C(O)CNCc1ccccc1; Nlys = NCCCCNCC(=O)O

Assays:
[1] = test system: P. aeruginosa PA01 (H103); assay type: cell-based, Pseudomonas aeruginosa; conditions: for Minimal inhibitory concentration PA^g: H103, 18 h
Method in brief: (§1)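 Broth microdilution per CLSI in MHB II, final inoculum 5 × 10^5 CFU/mL, with twofold peptoid dilutions. Incubation was 18 h at 37 °C in ambient air. MIC was taken as the lowest concentration without visible growth, from two experiments on different days in technical triplicate.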

E. coli ATCC 25922 = assay type: cell-based, Escherichia coli; conditions: for Minimal inhibitory concentration EC^f: ATCC 25922, 18 h
Method in brief: as §1

[2] = test system: Methicillin-resistant S. epidermidis ATCC 51625; assay type: cell-based, Staphylococcus epidermidis; conditions: for Minimal inhibitory concentration MRSE^e: ATCC 51625, 18 h
Method in brief: as §1

[3] = test system: Methicillin-resistant S. epidermidis ET-024; assay type: cell-based, Staphylococcus epidermidis; conditions: for Minimal inhibitory concentration MRSE^d: Methicillin-resistant ET-024, 18 h
Method in brief: as §1

HaCaT cell line = assay type: cell-based, human; conditions: 1 h exposure, MTS/PMS assay; interval in brackets
Protocol: An immortalized human keratinocytes (HaCaT) cell line (Gift from David G. Naym at Bispebjerg Hospital) were cultured to ∼90% confluence after 21–25 h of growth at 5% CO2 and 37 °C as previously. In brief, the cells were cultured in Dulbecco’s Modified Eagle’s Medium supplemented with 10% (v/v) fetal bovine serum, penicillin (100 IU/mL), and streptomycin (100 μg/mL), purchased from Sigma-Aldrich (St. Louis, MO, United States).
Cell viability assessment was performed on cell monolayers grown to ∼90% confluence in 96-well plates Corning Costar (Sigma-Aldrich, Brøndby, Denmark) by using the MTS/PMS assay as previously described. Briefly, the adhered cells were washed with 37 °C PBS solution (ThermoFisher Scientific, Roskilde) and exposed for 1 h at 37 °C to 100 μL of peptoids dissolved in the medium also used for culturing of the cell line (at concentrations in the range 0–1,000 μg/mL). The precise exposure-time were selected to enable comparison with related peptoid compounds[21],[35]. […] A plate reader (SpectraMax i3X; Molecular devices, San Jose, CA) was used to measure the absorbance at 492 nm. The relative viability was calculated by using 0.2% (w/v) sodium dodecyl sulfate (SDS) as the positive control, while cells exposed to medium without test compound were used as the negative control. […]

S. aureus ATCC 25923 = assay type: cell-based, Staphylococcus aureus; conditions: for Minimal inhibitory concentration SA^a: ATCC 25923, 18 h
Method in brief: as §1

[4] = test system: Methicillin-resistant S. aureus USA 300; assay type: cell-based, Staphylococcus aureus; conditions: for Minimal inhibitory concentration MRSA^c: USA 300, 18 h
Method in brief: as §1

[5] = test system: selected bacterial strains (S. aureus, S. epidermidis, E. coli, P. aeruginosa); assay type: cell-based
Protocol: All 36 peptoids were tested against seven bacterial strains: five Gram-positive (Staphylococcus aureus ATCC 25923 and ATCC 29213, methicillin-resistant Staphylococcus aureus USA 300, methicillin-resistant Staphylococcus epidermidis ET-024 and ATCC 51625) and two Gram-negative (Escherichia coli ATCC 25922, Pseudomonas aeruginosa PA01) (Table 1).
Bacterial growth inhibition was determined by using broth microdilution according to the Clinical Laboratory Standards Institute[43]. The antibacterial activity of peptoids was tested against S. aureus ATCC 25923, ATCC29213, and methicillin resistant S. aureus USA 300, methicillin resistant S. epidermidis ATCC 51625, a biofilm producing methicillin resistant S. epidermidis ET-024[44], P. aeruginosa Pa01 (H103), and E. coli ATCC 25922. Bacteria, grown on agar plates for 18 h at 37 °C, were diluted to ∼1 × 10^8 CFU/mL in Mueller‐Hinton Broth II (MHB II). Twofold serial dilutions of peptoids in MHB II were inoculated with bacteria to achieve a final concentration of 5 × 10^5 CFU/mL in polypropylene 96 U‐well microtiter plates (Corning 3,897; ThermoFisher Scientific, Roskilde), followed by incubation at 37 °C in ambient air for 18 h. The MIC values were determined as the lowest concentration showing no visible bacterial growth. Experiments were performed twice (in technical triplicates) on 2 different days.

[6] = Critical aggregation concentration from SAXS fit analysis; assay type: physicochemical
Protocol: SAXS experiments of the 10-mer peptoids were performed at the automated BM29 bioSAXS beamline at the European Synchrotron Radiation Facility (ESRF) in Grenoble, France[45]. The data was obtained using an energy of 12.5 keV and a detector distance of 2.87 m, covering a q range ( q=4πsin(θ/2)/λ ), where θ is the scattering angle and λ is the X-ray wavelength) of about 0.0047 to 0.5 Å^−1. The data set was calibrated to an absolute intensity scale using water as a primary standard. 40 µL samples were run through a capillary using the flow mode of the automated sample changer. SAXS data was collected in ten successive frames of 0.5 s each to monitor radiation damage and the data reduction was done using the standard tool at BM29[47].
The SAXS experiments on the fully iodinated 6-, 8-, and 12-mers to determine the CAC of the compounds were performed using a Bruker NANOSTAR equipped with a microfocus X-ray source (IμS Cu, Incoatec, Germany) and a VÅNTEC-2000 detector. Raw scattering data was calibrated to absolute intensity scale using water as a primary standard and radially averaged in order to obtain the 1D scattered intensity profile as a function of the scattering vector, with a wavelength of 1.54 Å.
The modelling fit analysis of the scattering data is explained in detail in the supplementary information.

S. aureus ATCC 29213 = assay type: cell-based, Staphylococcus aureus; conditions: ATCC 29213, 18 h
Method in brief: as §1

C[C@@H](c1ccccc1)N(CC(N)=O)C(=O)CN(C(=O)CN(CCCCN)C(=O)CN(C(=O)CN(C(=O)CN(CCCCN)C(=O)CN(C(=O)CN(C(=O)CN(CCCCN)C(=O)CN(C(=O)CN(C(=O)CNCCCCN)[C@@H](C)c1ccccc1)[C@@H](C)c1ccccc1)[C@@H](C)c1ccccc1)[C@@H](C)c1ccccc1)[C@@H](C)c1ccccc1)[C@@H](C)c1ccccc1)[C@@H](C)c1ccccc1 [Peptoid 1, reference compound] (H-[Nlys][Nspe][Nspe][Nlys][Nspe][Nspe][Nlys][Nspe][Nspe][Nlys][Nspe][Nspe]-NH2)
MIC PA^f ([1]; Table 2, P. aeruginosa PA01 H103): 16 µg/mL (≈ 8.79 µM)
MIC EC^e (E. coli ATCC 25922; Table 2, E. coli ATCC 25922): 8 µg/mL (≈ 4.4 µM)
MIC MRSE^d ([2]; Table 2, MRSE ATCC 51625): 8 µg/mL (≈ 4.4 µM)
MIC MRSE^c ([3]; Table 2, MRSE ET-024): 4 µg/mL (≈ 2.2 µM)
IC50 towards HaCaT cell line (HaCaT cell line): 35.0 (30.9 to 39.9) μg/mL
MIC SA^a (S. aureus ATCC 25923; Table 2, S. aureus ATCC 25923): 8 µg/mL (≈ 4.4 µM)
MIC MRSA^b ([4]; Table 2, MRSA USA 300): 8 µg/mL (≈ 4.4 µM)

NCCCCNCC(=O)N(CC(=O)N(CCCCN)CC(=O)N(CC(=O)N(CCCCN)CC(=O)N(CC(=O)N(CCCCN)CC(=O)N(CC(=O)N(CCCCN)CC(=O)N(CC(N)=O)Cc1ccc(Br)cc1)Cc1ccc(Br)cc1)Cc1ccc(Br)cc1)Cc1ccc(Br)cc1)Cc1ccc(Br)cc1 [Compound 22] (H-[Nlys][N(4-Br-benzyl)Gly][Nlys][N(4-Br-benzyl)Gly][Nlys][N(4-Br-benzyl)Gly][Nlys][N(4-Br-benzyl)Gly][Nlys][N(4-Br-benzyl)Gly]-NH2)
Minimal inhibitory concentration PA^g [1]: > 512 µg/mL
MICs, range across strains ([5]; range matches Gram-positive strains of Table 1): 1 to 4 µg/mL
critical aggregation concentration (CAC) [6]: 2.3 mg/mL
Minimal inhibitory concentration EC^f (E. coli ATCC 25922): 64 µg/mL (≈ 35.8 µM)
Minimal inhibitory concentration MRSE^e [2]: 1 µg/mL (≈ 0.559 µM)
Minimal inhibitory concentration MRSE^d [3]: 1 µg/mL (≈ 0.559 µM)
fold increase of activity against MRSE ([3]; versus non-halogenated control of same length, values match ET-024): 128 fold
Minimal inhibitory concentration SA^b (S. aureus ATCC 29213): 2 µg/mL (≈ 1.12 µM)
Minimal inhibitory concentration SA^a (S. aureus ATCC 25923): 2 µg/mL (≈ 1.12 µM)
fold increase of activity against S. aureus (S. aureus ATCC 25923; versus non-halogenated control of same length): > 256 fold
Minimal inhibitory concentration MRSA^c [4]: 4 µg/mL (≈ 2.24 µM)

NCCCCNCC(=O)N(CC(=O)N(CCCCN)CC(=O)N(CC(=O)N(CCCCN)CC(=O)N(CC(=O)N(CCCCN)CC(=O)N(CC(=O)N(CCCCN)CC(=O)N(CC(N)=O)Cc1ccccc1)Cc1ccccc1)Cc1ccccc1)Cc1ccccc1)Cc1ccccc1 [Compound 19] (H-[Nlys][Nphe][Nlys][Nphe][Nlys][Nphe][Nlys][Nphe][Nlys][Nphe]-NH2)
Minimal inhibitory concentration PA^g [1]: 512 µg/mL (≈ 367 µM)
antimicrobial potency against the selected bacterial strains, in words [5]: inactive
critical aggregation concentration (CAC) [6]: > 5 mg/mL
Minimal inhibitory concentration EC^f (E. coli ATCC 25922): 256 µg/mL (≈ 184 µM)
Minimal inhibitory concentration MRSE^e [2]: 128 µg/mL (≈ 91.8 µM)
Minimal inhibitory concentration MRSE^d [3]: 128 µg/mL (≈ 91.8 µM)
Minimal inhibitory concentration SA^b (S. aureus ATCC 29213): > 512 µg/mL
Minimal inhibitory concentration SA^a (S. aureus ATCC 25923): > 512 µg/mL
Minimal inhibitory concentration MRSA^c [4]: > 512 µg/mL
